Results on 5 compounds are retold here after ChEMBL document CHEMBL1255518, “Novel pyrrole- and 1,2,3-triazole-based 2,3-oxidosqualene cyclase inhibitors” (Bioorg Med Chem Lett, 2010).

As a reminder, the inhibition is the change of the read-out against control, counted positive when it falls. What is called IC50 is the concentration that gives 50% inhibition. Low values mean greater potency in that assay, high ones weaker potency in that assay.

Structures are written as SMILES.

The target of experiment [1] is T1, Lanosterol synthase (Homo sapiens) (UniProt P48449).
T1 sequence (whole entry): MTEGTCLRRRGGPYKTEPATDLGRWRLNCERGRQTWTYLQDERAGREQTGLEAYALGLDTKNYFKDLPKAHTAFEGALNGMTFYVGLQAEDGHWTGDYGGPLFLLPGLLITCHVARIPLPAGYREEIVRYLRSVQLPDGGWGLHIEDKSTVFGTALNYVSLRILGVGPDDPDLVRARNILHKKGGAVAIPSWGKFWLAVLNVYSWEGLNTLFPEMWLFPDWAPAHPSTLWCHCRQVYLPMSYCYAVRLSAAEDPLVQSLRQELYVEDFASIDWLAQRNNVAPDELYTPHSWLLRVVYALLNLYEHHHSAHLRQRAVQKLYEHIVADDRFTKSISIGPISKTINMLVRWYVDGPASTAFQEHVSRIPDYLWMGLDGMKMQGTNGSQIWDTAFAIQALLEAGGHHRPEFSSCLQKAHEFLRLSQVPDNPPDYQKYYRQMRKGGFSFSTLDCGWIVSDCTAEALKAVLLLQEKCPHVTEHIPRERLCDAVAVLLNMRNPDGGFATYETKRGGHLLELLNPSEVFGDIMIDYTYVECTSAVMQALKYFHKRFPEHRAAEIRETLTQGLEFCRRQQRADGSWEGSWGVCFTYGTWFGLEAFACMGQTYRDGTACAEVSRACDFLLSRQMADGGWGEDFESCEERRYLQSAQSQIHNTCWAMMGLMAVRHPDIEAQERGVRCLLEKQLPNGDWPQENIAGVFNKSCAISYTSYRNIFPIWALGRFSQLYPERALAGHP
Kind of experiment: Inhibition of OSC at 20 uM.

In a further experiment the target is T2, Lanosterol synthase (Homo sapiens, UniProt P48449).
T2 sequence (P48449 whole entry): T1 sequence (whole entry)
Kind of experiment: Inhibition of OSC.

Take `CCCCCCCCCCCC[N+](C)(C)[O-]`: in experiment [1], the inhibition worked out at 84%. Half-maximal inhibition at Lanosterol synthase (IC50) required 2.15 µM.
On the same counts, the results for `CN(C)Cc1ccc(CNCc2cnn(-c3ccccc3)n2)cc1` are 128% and 1.41 µM.
`COc1ccc(-n2c(C)cc(C(=O)NCc3ccc(CN(C)C)cc3)c2C)cc1` gave an IC50 on Lanosterol synthase of 35.4 µM.
Take `COc1ccc(-n2c(C)cc(CNCc3ccc(CN(C)C)cc3)c2C)cc1`: the inhibition in experiment [1] came to 86%. At Lanosterol synthase, this compound showed an IC50 of 12.7 µM.
At Lanosterol synthase, `COc1ccc(-n2c(C)cc(CNC(=O)c3ccc(CN(C)C)cc3)c2C)cc1` returned an IC50 of 58.8 µM. In other words, the double-digit micromolar range.
